Measurements taken from US20230265083A1, “Heterocycle CDK Inhibitors And Their Use Thereof” (Prelude Therapeutics Incorporated, priority 2020, published 2023).

Assays:
CDK4/Cyclin D1 = target: T1, CDK4/Cyclin D1 (Homo sapiens, UniProt P11802); assay: CDK4/CyclinD1 Enzymatic Activity Assay (TR-FRET); format: biochemical; details: ATP 2 mM, recombinant CDK4/Cyclin D1 1 nM, read-out: CDK4_D1 IC50
T1 construct: purchased ProQinase; host or cells: insect cell
Protocol: CDK4/CyclinD1 Enzymatic Activity Assay
(§1) The inhibitory activity of compounds was evaluated in vitro using TR-FRET assay with white 384-well low volume microplate (Greiner Bio-One). CDK4/Cyclin D1 catalyzed phosphorylation of peptides in the presence and absence of compounds was measured and used in IC50 determination. Recombinant protein complex CDK4/Cyclin D1, expressed from insect cell, was purchased from ProQinase. Testing compounds were dissolved in DMSO at 1 mM and tested in 9-dose IC50 mode. The reaction mixture was prepared by mixing CDK4/CyclinD1 (1 nM final), ULight-4E-BP1 (100 nM final, Perkinelmer, TRF0128-D), and ATP (2 mM final) in assay buffer (20 mM of HEPES pH 7.4, 1 mM of EGTA, 0.05% BSA, 0.005% Tween 20, and 1 mM TCEP). The compound of interest in DMSO was added to each well in 3-fold serial dilution by the dispenser (TECAN D300E) to make a 9.9 μL of the reaction mixture. After 20 minutes of preincubation at room temperature, 0.1 μL MgCl2 (10 mM final) was added to initiate the reaction. Following a 45 minutes incubation at 37° C., the reaction was stopped by the addition of 2 μL of quenching buffer consisting of Lance detection buffer (Perkinelmer CR97-100C), LANCE Ultra Europium-anti-P-4E-BP1 (Perkinelmer, TRF0216-D), EDTA, and incubate at room temperature for additional 60 minutes in the dark. The reaction signal was measured by Envision multimode plate reader (PerkinElmer, 2102-0010). IC50 values were determined by fitting the data to the standard 4 parameters with Hill Slope using GraphPad Prism software.

CDK9/Cyclin T1 = target: T2, CDK9/Cyclin T1 (Homo sapiens, UniProt P50750); assay: CDK9/CyclinT1 Enzymatic Activity Assay (TR-FRET); format: biochemical; details: ATP 1 mM, recombinant CDK9/Cyclin T1 1 nM, read-out: CDK9_T1 IC50
T2 construct: purchased ProQinase; host or cells: insect cell
T2 sequence (P50750 whole entry): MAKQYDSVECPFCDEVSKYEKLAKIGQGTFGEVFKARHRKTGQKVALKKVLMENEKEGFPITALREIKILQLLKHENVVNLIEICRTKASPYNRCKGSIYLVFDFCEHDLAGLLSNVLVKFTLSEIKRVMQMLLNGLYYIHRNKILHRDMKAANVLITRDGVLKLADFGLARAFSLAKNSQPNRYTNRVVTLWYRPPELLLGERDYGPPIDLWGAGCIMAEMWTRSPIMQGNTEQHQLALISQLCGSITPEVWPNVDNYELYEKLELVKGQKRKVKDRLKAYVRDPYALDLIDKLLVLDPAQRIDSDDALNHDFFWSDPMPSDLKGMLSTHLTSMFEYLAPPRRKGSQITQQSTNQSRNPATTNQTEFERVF
T2 sequence (O60563 whole entry partner): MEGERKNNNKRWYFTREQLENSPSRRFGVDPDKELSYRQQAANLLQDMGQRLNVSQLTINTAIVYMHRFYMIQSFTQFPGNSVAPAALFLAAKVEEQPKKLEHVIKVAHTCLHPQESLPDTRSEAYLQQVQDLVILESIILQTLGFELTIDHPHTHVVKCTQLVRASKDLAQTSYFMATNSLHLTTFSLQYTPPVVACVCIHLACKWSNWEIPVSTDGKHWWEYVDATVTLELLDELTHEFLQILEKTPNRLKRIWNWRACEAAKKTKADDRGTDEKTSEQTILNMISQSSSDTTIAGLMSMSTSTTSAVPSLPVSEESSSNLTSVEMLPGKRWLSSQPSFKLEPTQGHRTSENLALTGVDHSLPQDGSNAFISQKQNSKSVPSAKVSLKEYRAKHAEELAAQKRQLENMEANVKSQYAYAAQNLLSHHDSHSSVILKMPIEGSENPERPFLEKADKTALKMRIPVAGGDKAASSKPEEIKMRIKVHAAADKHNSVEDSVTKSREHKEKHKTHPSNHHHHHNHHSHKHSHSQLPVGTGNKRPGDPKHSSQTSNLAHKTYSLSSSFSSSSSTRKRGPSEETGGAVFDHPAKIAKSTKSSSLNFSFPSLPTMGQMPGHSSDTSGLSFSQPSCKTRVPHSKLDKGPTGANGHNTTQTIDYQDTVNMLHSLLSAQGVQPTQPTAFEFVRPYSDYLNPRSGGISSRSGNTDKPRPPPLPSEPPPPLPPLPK
Protocol: CDK9/CyclinT1 Enzymatic Activity Assay
as §1, with “Bio-One). CDK9/Cyclin T1” for “Bio-One). CDK4/Cyclin D1”, “complex CDK9/Cyclin T1,” for “complex CDK4/Cyclin D1,”, “mixing CDK9/CyclinT1” for “mixing CDK4/CyclinD1”, “ULight-4E-BP1 (50” for “ULight-4E-BP1 (100”, “ATP (1” for “ATP (2”

H929 cells = assay: CellTiter-Glo Protocol (Proliferation); format: cell-based; details: Homo sapiens, NCI-H929, 24 hours, read-out: PROLIFERATION_CTG_H929 IC50
Protocol: CellTiter-Glo® Protocol (Proliferation)
Dispense 10 μL aliquot of prepared H929 cells (1:1 ratio of cells: Trypan Blue (#1450013, Bio-Rad)) onto cell counting slide (#145-0011, Bio-Rad) and obtain cell density and cell viability using a cell counter (TC20, Bio-Rad). Remove appropriate volume of resuspended cells from culture flask to accommodate 4000 cells/well at 10 μL/well. Transfer H929 cells to 50 mL conical (#430290, Corning). Spin down at 1000 rpm for 5 min. using a tabletop centrifuge (SPINCHRON 15, Beckman). Discard supernatant and resuspend cell pellet in modified RPMI 1640 (#10-040-CV, Corning) cell culture media containing 10% FBS (F2422-500ML, Sigma), sodium pyruvate (100 mM) (#25-000-CL, Corning), HEPES buffer (1M) (#25-060-CL, Corning) and glucose (200 g/L) (A24940-01, Gibco) to a cell density of 400,000 cells/mL. Dispense 10 μL of resuspended H929 cells per well in 384-well small volume TC treated plate (#784080, Greiner Bio-one) using standard cassette (#50950372, Thermo Scientific) on Multidrop Combi (#5840310, Thermo Scientific) in laminar flow cabinet. Dispense compounds onto plates using a digital liquid dispenser (D300E, Tecan). Incubate plates in humidified tissue culture incubator at 37° C. for 24 hours. Add 10 μL of prepared CellTiTer-Glo® detection buffer (G7570, Promega) to each well of 384-well plate using small tube cassette (#24073295, Thermo Scientific) on Combi multi-drop, incubate at RT for 30-60 min. Read plates with a microplate reader (PheraStar, BMG Labtech) using 384 well luminescence mode. See Table B (Proliferation_CTG_H929).

CDK2/Cyclin A2 = target: T3, CDK2/Cyclin A2 (Homo sapiens, UniProt P24941); assay: CDK2/CyclinA2 Enzymatic Activity Assay (TR-FRET); format: biochemical; details: ATP 1 mM, recombinant CDK2/Cyclin A2 1 nM, read-out: CDK2_A2 IC50
T3 construct: purchased ProQinase; host or cells: insect cell
Protocol: CDK2/CyclinA2 Enzymatic Activity Assay
The inhibitory activity of compounds was evaluated in vitro using TR-FRET assay with white 384-well low volume microplate (Greiner Bio-One). CDK2/Cyclin A2 catalyzed phosphorylation of peptides in the presence and absence of compounds was measured and used in IC50 determination. Recombinant protein complex CDK2/Cyclin A2, expressed from insect cell, was purchased from ProQinase. Testing compounds were dissolved in DMSO at 1 mM and tested in 9-dose IC50 mode. The reaction mixture was prepared by mixing CDK2/CyclinA2 (1 nM final), ULight-4E-BP1 (50 nM final, Perkinelmer, TRF0128-D), and ATP (1 mM final) in assay buffer (20 mM of HEPES pH 7.4, 1 mM of EGTA, 0.05% BSA, 0.005% Tween 20, and 1 mM TCEP). The compound of interest in DMSO was added to each well in 3-fold serial dilution by the dispenser (TECAN D300E) to make a 9.9 μL of the reaction mixture. After 20 minutes preincubation at room temperature, 0.1 μL MgCl2 (10 mM final) was added to initiate the reaction. Following a 45 minutes incubation at 37° C., the reaction was stopped by addition of 2 μL of quenching buffer consisting of Lance detection buffer (Perkinelmer CR97-100C), LANCE Ultra Europium-anti-P-4E-BP1 (Perkinelmer, TRF0216-D), EDTA, and incubate at room temperature for additional 60 minutes in the dark. The reaction signal was measured by Envision multimode plate reader (PerkinElmer, 2102-0010). IC50 values were determined by fitting the data to the standard 4 parameters with Hill Slope using GraphPad Prism software.

T1 sequence (P11802 whole entry): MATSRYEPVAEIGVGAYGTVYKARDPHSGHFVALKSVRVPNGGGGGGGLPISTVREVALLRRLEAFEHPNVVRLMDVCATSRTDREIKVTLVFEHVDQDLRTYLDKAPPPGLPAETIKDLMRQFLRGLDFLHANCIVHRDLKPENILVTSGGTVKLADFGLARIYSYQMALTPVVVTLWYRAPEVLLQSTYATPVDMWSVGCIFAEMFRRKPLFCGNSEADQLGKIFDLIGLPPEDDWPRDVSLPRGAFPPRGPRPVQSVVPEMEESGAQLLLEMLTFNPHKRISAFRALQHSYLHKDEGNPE
T1 sequence (P24385 whole entry partner): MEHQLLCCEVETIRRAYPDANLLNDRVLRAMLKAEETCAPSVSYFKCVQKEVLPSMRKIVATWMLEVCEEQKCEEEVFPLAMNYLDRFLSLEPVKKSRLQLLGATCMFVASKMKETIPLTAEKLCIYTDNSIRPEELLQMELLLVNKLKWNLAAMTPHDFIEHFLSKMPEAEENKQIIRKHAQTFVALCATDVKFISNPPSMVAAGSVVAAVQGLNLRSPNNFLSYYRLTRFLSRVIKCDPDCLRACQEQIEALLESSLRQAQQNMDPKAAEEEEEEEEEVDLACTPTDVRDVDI

IC50 (CDK4/Cyclin D1): > 1000 nM | IC50 (CDK9/Cyclin T1): 20 to 200 nM | IC50 (H929 cells): 200 to 1000 nM | IC50 (CDK2/Cyclin A2): > 1000 nM
Structure (SMILES): Cc1cnc(NC(=O)[C@H]2CCC[C@@H](NC(=O)CC#N)C2)cc1-c1cccc2c1OCCN2 [Example 8, (1S,3R)-3-(2-cyanoacetamido)-N-(4-(3,4-dihydro-2H-benzo[b][1,4]oxazin-8-yl)-5-methylpyridin-2-yl)cyclohexane-1-carboxamide]
